The values below come from US5571816A, “Pyrimidines” (Hoechst Aktiengesellschaft, priority 1992, dated 1996).

SMILES strings stand for the structures. Where a name gives a salt, the structure may show the parent alone. Read-outs that look alike come from different tables or passages of the source.

One data set relates to serum lipoproteins. Kind of data set: Effect on serum lipoproteins of normolipemic male rats in a subchronic experiment. Format: in vivo. As to conditions: Rattus norvegicus, po, by stomach tube, 7 administrations; for change in vivo at 10 mg/kg: 10 mg/kg/day; for change in vivo at 30 mg/kg: 30 mg/kg/day. As for the experimental part: 3. In vivo, the increased LDL receptor activity in experimental animals is reflected by reduction in the lipoprotein fractions which can be metabolized by the LDL receptor (apoB/E receptor), i.e. a reduction in the LDL and VLDL levels is observed. The following test was carried out:
Effect on serum lipoproteins of normolipemic male rats in a subchronic experiment
Groups of in each case 10 male rats of the HOE: WISKf (SPF 71) strain with an initial weight above 180 g received once a day (in the morning) the test product or the comparison product in 1% aqueous ®Tylose MH 300 solution by stomach tube (0.5 ml/100 g of body weight); the control group in each case received only the vehicle. The last (7th) administration took place 24 hours before removal of blood and sacrifice. There was free access to food and water during the test. The food was withdrawn 24 hours before the removal of blood.
The serum from all 10 rats in a group was pooled for the analysis of the serum lipoproteins. The serum lipoproteins were separated with a preparative ultracentrifuge (KONTRON TGA 65, Rotor BECKMAN 50.4 Ti).
The following conditions specified by Koga, S., Horwitz, D. L., and Scanu, A. M., Journal of Lipid Research 10, 577 (1969) and Havel, R. J., Eder, H. A., and Bragdon, H. H., J. Clin. Invest. 34, 1345 (1955) were used to separate VLDL and LDL: 1. VLDL: Density<1.006, 40,000 rpm for 16 hours 2. LDL: Density 1.006-1.04, 40,000 rmp for 16 hours
Test kits from BOEHRINGER/Mannheim were used for the enzymatic determination of cholesterol and triglycerides in the separated lipoprotein fractions (cf. Siedel, J., Schlumberger, H., Klose, S., Ziegenhorn, J. and Wahlefeld, A. W., J. Clin. Chem. Clin. Biochem. 19, 838 (1981) and Wahlefeld, A. W., in: H. O. Bergmeier: Methoden der enzymatischen Analyse (Methods of Enzymatic Analysis), 2nd edition, Volume II, Verlag Chemie 1974, page 1878). The proteins were determined by the method of Lowry (Lowry, O. H., Roseborough, N. H., Farr, A. L. and Randell, R. J., J. Biol. Chem. 193, 265 (1951)).
Clofibrate was used as comparison product.

A short description of data set [1]: Solubility in water of salts (and free bases). The following applies: for solubility: water. Type of data set: physicochemical.
Setting [2] is: read-out: Serum LDL cholesterol, % change from control at end of treatment.
Setting [3] is: read-out: Serum LDL protein, % change from control at end of treatment.
The mark [4] stands for this setting: read-out: Serum VLDL cholesterol, % change from control at end of treatment.
The mark [5] stands for this setting: read-out: Serum VLDL protein, % change from control at end of treatment.
[6] abbreviates: read-out: Serum VLDL triglycerides, % change from control at end of treatment.
The mark [7] stands for this setting: Table 2, salts of compounds I, temp. by No. [°C]: 1 25.5, 2 23.0, 3 22.4, 4 22.4, 5 22.0, 6 25.0, 7 25.5, 8 25.5, 9 25.5, 10 23.5, 11 23.5, 12 25.0, 13 24.0, 14 23.0, 15 22.0, 16 24.5, 17 22.5, 18 22.0, read-out: Solubility in water, Concentration in % by wt.
Where [8] appears, read: Table 2, salts of compounds I, temp. by No. [°C]: 1 25.5, 2 23.0, 3 22.4, 4 22.4, 5 22.0, 6 25.0, 7 25.5, 8 25.5, 9 25.5, 10 23.5, 11 23.5, 12 25.0, 13 24.0, 14 23.0, 15 22.0, 16 24.5, 17 22.5, 18 22.0.
Where [9] appears, read: Table 1, N-H analogs, temp. by No. [°C]: 1 25.0, 2 23.0, 3 26.2, 4 25.1, 5 25.2, 6 24.1, 7 24.5, 8 24.2, 9 24.2, 10 25.7, 11 25.8.
Setting [10] is: Table 1, N-H analogs, temp. by No. [°C]: 1 25.0, 2 23.0, 3 26.2, 4 25.1, 5 25.2, 6 24.1, 7 24.5, 8 24.2, 9 24.2, 10 25.7, 11 25.8, read-out: Solubility in water, Concentration in % by wt.
Setting [11] is: Table 1, N-H analogs, temp. by No. [°C]: 1 25.0, 2 23.0, 3 26.2, 4 25.1, 5 25.2, 6 24.1, 7 24.5, 8 24.2, 9 24.2, 10 25.7, 11 25.8, read-out: Solubility in water, Molarity × 10^-3.
The mark [12] stands for this setting: Table 2, salts of compounds I, temp. by No. [°C]: 1 25.5, 2 23.0, 3 22.4, 4 22.4, 5 22.0, 6 25.0, 7 25.5, 8 25.5, 9 25.5, 10 23.5, 11 23.5, 12 25.0, 13 24.0, 14 23.0, 15 22.0, 16 24.5, 17 22.5, 18 22.0, nitrate.

`CCN(C(=O)c1cnc(N2CC(C)(C)NC2=O)nc1N)c1cc(C(F)(F)F)ccc1F` [Example 32]: the change in vivo at 10 mg/kg in the data set on serum lipoproteins (setting [2]) was -54%; with serum lipoproteins (setting [3]) it was -36%; in the data set with serum lipoproteins (setting [4]), -85%; in the data set on serum lipoproteins (setting [5]), -73%; in the data set with serum lipoproteins (setting [6]), -68%. The change in vivo at 30 mg/kg is -76% with serum lipoproteins (setting [2]); -49% in the data set on serum lipoproteins (setting [3]); -100% with serum lipoproteins (setting [4]); -39% in the data set with serum lipoproteins (setting [5]); -80% with serum lipoproteins (setting [6]). Also, the solubility in data set [1] (setting [7]) came to 10.1 mg/mL.
With `CC(C)N(C(=O)c1cnc(N2CC(C)(C)NC2=O)nc1N)c1ccc(F)c(C(F)(F)F)c1` [Example 35], the change in vivo at 30 mg/kg is 46% in the data set on serum lipoproteins (setting [2]); -35% with serum lipoproteins (setting [3]); -79% in the data set with serum lipoproteins (setting [4]); -69% with serum lipoproteins (setting [5]); -55% with serum lipoproteins (setting [6]). For the same compound, in data set [1] (setting [8]), the “1 part by mass dissolves in ... parts by H2O” value (“1 part … by H2O” below) is reported as 28.6 parts by H2 O. In addition, the solubility in data set [1] (setting [7]) turned out to be 33.8 mg/mL.
For `CCCC1(C)CN(c2ncc(C(=O)Nc3cc(C(F)(F)F)ccc3Cl)c(N)n2)C(=O)N1` (stereo not shown) [No. 8 (Table 1), reference compound], the “1 part by mass dissolves in ... parts of H2O” value (“1 part … of H2O” for short) in data set [1] (setting [9]) is 781 parts of H2 O. In addition, the solubility in data set [1] (setting [10]) came out at 1.3 mg/mL; in data set [1] (setting [11]), 2.59 mM.
As to `CCN(C(=O)c1cnc(N2CC(C)(C)NC2=O)nc1N)c1cccc(C(F)(F)F)c1` [Example 1, 4-amino-2-(4,4-dimethyl-2-oxo-1-imidazolidinyl)pyrimidine-5-carboxylic acid N-ethyl-N-(3-trifluoromethylphenyl)amide], the “1 part … by H2O” value in data set [1] (setting [8]) worked out at 13.5 parts by H2 O. For the same compound, in data set [1] (setting [7]), the solubility worked out at 68.9 mg/mL.
With `CC1(C)CN(c2ncc(C(=O)Nc3cc(C(F)(F)F)ccc3Cl)c(N)n2)C(=O)N1` [No. 4 (Table 1), reference compound], the “1 part … of H2O” value in data set [1] (setting [9]) is on record as 217 parts of H2 O. The solubility was 4.6 mg/mL in data set [1] (setting [10]) and 9.91 mM in data set [1] (setting [11]).
As for `CC1(C)CN(c2ncc(C(=O)N(CC3CC3)c3cc(C(F)(F)F)ccc3F)c(N)n2)C(=O)N1` [Example 61, 4-amino-2-(4,4-dimethyl-2-oxo-1-imidazolidinyl)pyrimidine-5-carboxylic acid N-cyclopropylmethyl-N-(2-fluoro-5-trifluoromethylphenyl)amide], the “1 part … by H2O” value in data set [1] (setting [8]) turned out to be 65.8 parts by H2 O. Moreover, in data set [1] (setting [7]), the solubility stood at 15 mg/mL.
Turning to `COc1ccc(C(F)(F)F)cc1NC(=O)c1cnc(N2CC(C)(C)NC2=O)nc1N` [No. 6 (Table 1), reference compound], the “1 part … of H2O” value in data set [1] (setting [9]) was 75 parts of H2 O. In data set [1] (categories of the Deutsches Arzneibuch), the “solubility in water, in words” value was “sparingly soluble”. The solubility in data set [1] (setting [10]) is 13.2 mg/mL; in data set [1] (setting [11]), 28.9 mM.
For the compound `CC(C)N(C(=O)c1cnc(N2CC(C)(C)NC2=O)nc1N)c1cccc(C(F)(F)F)c1` [Example 3, 4-amino-2-(4,4-dimethyl-2-oxo-1-imidazolidinyl)pyrimidine-5-carboxylic acid N-isopropyl-N-(3-trifluoromethylphenyl)amide], the “1 part … by H2O” value in data set [1] (setting [8]) was 24.7 parts by H2 O. In addition, in data set [1] (setting [7]), the solubility was determined as 38.9 mg/mL.
Taken in the same sequence, the figures for `CC1(C)CN(c2ncc(C(=O)N(c3cccc(C(F)(F)F)c3)C3CCCC3)c(N)n2)C(=O)N1` [No. 8 (Table 2)] were 60.6 parts by H2 O and 16.2 mg/mL.
For the compound `CC1(C)CN(c2ncc(C(=O)Nc3cccc(C(F)(F)F)c3)c(N)n2)C(=O)N1` [No. 1 (Table 1), hydrochloride of 4-amino-2-(4,4-dimethylimidazolidin-2-on-1-yl)pyrimidine-5-carboxylic acid N-(3-trifluoromethylphenyl)amide, reference compound], the solubility in data set [1] (23° C., read-out: 1 part by mass dissolves in parts of water (converted)) was 0.4 mg/mL; in data set [1] (23° C., read-out: solution that can be prepared in water), 0.93 mM; in data set [1] (setting [10]), 0.4 mg/mL; in data set [1] (setting [11]), 0.93 mM.
For the compound `CCCC1(C)CN(c2ncc(C(=O)Nc3cccc(C(F)(F)F)c3)c(N)n2)C(=O)N1` (stereo not shown) [No. 10 (Table 1), reference compound], the “1 part … of H2O” value in data set [1] (setting [9]) is given as 255 parts of H2 O. Moreover, the solubility in data set [1] (setting [10]) stood at 3.9 mg/mL; in data set [1] (setting [11]), 8.54 mM.
For the compound `COc1ccc(NC(=O)c2cnc(N3CC(C)(C)NC3=O)nc2N)cc1C(F)(F)F` [No. 7 (Table 1), reference compound], the “1 part … of H2O” value in data set [1] (setting [9]) is given as 554 parts of H2 O. Besides, the solubility came to 1.8 mg/mL in data set [1] (setting [10]) and 3.92 mM in data set [1] (setting [11]).
Regarding `CCCCCN(C(=O)c1cnc(N2CC(C)(C)NC2=O)nc1N)c1cccc(C(F)(F)F)c1` [Example 47, 4-amino-2-(4,4-dimethyl-2-oxo-1-imidazolidinyl)pyrimidine-5-carboxylic acid N-pentyl-N-(3-trifluoromethylphenyl)amide hydrochloride], the “1 part … by H2O” value in data set [1] (setting [8]) worked out at 51.3 parts by H2 O. Also, in data set [1] (setting [7]), the solubility was determined as 18.7 mg/mL.
Taken in the same sequence, the figures for `CC(C)CN(C(=O)c1cnc(N2CC(C)NC2=O)nc1N)c1cccc(C(F)(F)F)c1` (stereo not shown) [Example 114] were 24.7 parts by H2 O and 38.9 mg/mL.
With `C=CC1CN(c2ncc(C(=O)N(C)c3cccc(C(F)(F)F)c3)c(N)n2)C(=O)N1` (stereo not shown) [Example 72, 4-amino-2-(4-vinyl-2-oxo-1-imidazolidinyl)pyrimidine-5-carboxylic acid N-methyl-N-(3-trifluoromethylphenyl)amide hydrochloride], the “1 part … by H2O” value in data set [1] (setting [8]) is < 9 parts by H2 O. For the same compound, the solubility in data set [1] (setting [7]) is > 100 mg/mL.
In the case of `CCN(C(=O)c1cnc(N2CC(C)(C)NC2=O)nc1N)c1cc(C(F)(F)F)ccc1F` [Example 60, 4-amino-2-(4,4-dimethyl-2-oxo-1-imidazolidinyl)pyrimidine-5-carboxylic acid N-ethyl-N-(2-fluoro-5-trifluoromethylphenyl)amide nitrate], in data set [1] (setting [12]), the “1 part … by H2O” value is 57.5 parts by H2 O and the “Solubility in water, Concentration in % by wt.” value is 1.71 % by wt. For the same compound, in data set [1] (temperature not stated, read-out: soluble in a concentration in water), the solubility is 17 mg/mL.
